Assays:
K-Ras G12D = molecular target: T1, K-Ras G12D (Homo sapiens, UniProt P01116, G12D); assay: PPI-HTRF assay, K-Ras G12D / SOS1 interaction; assay type: biochemical; details: HTRF, K-Ras G12D; read-out: PPI-HTRF-5 nM (K-Ras G12D IC50)
T1 construct: made in house; host or cells: E. coli, e.g. BL21 (DE3)
How it was run: (§1)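 GST-tagged K-Ras (WT or mutant) bound to anti-GST-Eu was mixed with His-hSOS1 bound to anti-6His-XL665 in pH 7.4 HEPES/NaCl/DTT/BSA/Igepal buffer. After ~10 min or longer, HTRF was read (ex 337 nm, em 620/665 nm). IC50 was derived from the 665/620 ratio, with duplicates tested from 10 μM down to 0.01 μM.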

SW620 cells = assay: Ras cellular assay, cell proliferation SW620; assay type: cell-based; details: Homo sapiens, SW-620
Source text: For example, this assay can be also used to assess selective growth inhibition of a mutant Ras protein relative to a wildtype, or relative to a different mutant Ras protein.

K-Ras G12S = molecular target: T2, K-Ras G12S (Homo sapiens, UniProt P01116, G12S); assay: PPI-HTRF assay, K-Ras G12S / SOS1 interaction; assay type: biochemical; details: read-out: PPI-HTRF-5 nM (K-Ras G12S IC50)
T2 construct: made in house; host or cells: E. coli, e.g. BL21 (DE3)
How it was run: as §1

K-Ras G12V = molecular target: T3, K-Ras G12V (Homo sapiens, UniProt P01116, G12V); assay: PPI-HTRF assay, K-Ras G12V / SOS1 interaction; assay type: biochemical; details: HTRF, K-Ras G12V; read-out: PPI-HTRF-5 nM (K-Ras G12V IC50)
T3 construct: made in house; host or cells: E. coli, e.g. BL21 (DE3)
How it was run: as §1

wildtype K-Ras = molecular target: T4, wildtype K-Ras (Homo sapiens, UniProt P01116); assay: PPI-HTRF assay, wildtype K-Ras / SOS1 interaction; assay type: biochemical; details: HTRF, K-Ras wt; read-out: PPI-HTRF-5 nM (K-Ras wt IC50)
T4 construct: made in house; host or cells: E. coli, e.g. BL21 (DE3)
How it was run: as §1

A549 cells = assay: Ras cellular assay, cell proliferation A549; assay type: cell-based; details: Homo sapiens
How it was run: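 G12S-mutant A549 cells (800/well) in RPMI-1640 plus 10% heat-inactivated FBS, standard or ultra-low attachment 384-well plates, dosed the day after plating with a 10-point 3-fold series. Viability by CellTiter-Glo luminescence about 6 days later; IC50 from four-parameter fit.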

GP2D cells = assay: Ras cellular assay, cell proliferation GP2D; assay type: cell-based
How it was run: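 Growth inhibition read by CellTiter-Glo luminescence roughly 5 days after compound addition, which followed overnight plating of G12D-mutant GP2D cells (e.g., 800 per well). Compounds were tested as a serial dilution (e.g., 9 points, 3-fold), with IC50 fitted by four-parameter model.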

T3 sequence (P01116 1-188 isoform P01116-2 G12V): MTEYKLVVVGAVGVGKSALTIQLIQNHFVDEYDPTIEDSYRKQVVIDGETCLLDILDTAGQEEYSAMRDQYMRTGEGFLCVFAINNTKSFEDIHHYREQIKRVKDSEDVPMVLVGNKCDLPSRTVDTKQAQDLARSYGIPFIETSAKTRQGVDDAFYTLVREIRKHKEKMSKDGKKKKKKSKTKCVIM
T2 sequence (P01116 1-188 isoform P01116-2 G12S): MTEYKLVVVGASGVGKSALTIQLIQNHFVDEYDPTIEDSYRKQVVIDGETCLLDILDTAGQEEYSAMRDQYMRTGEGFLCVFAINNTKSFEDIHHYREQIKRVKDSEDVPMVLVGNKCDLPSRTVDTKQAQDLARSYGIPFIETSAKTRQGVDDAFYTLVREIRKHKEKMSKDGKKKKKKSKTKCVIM
T4 sequence (P01116 1-188 isoform P01116-2): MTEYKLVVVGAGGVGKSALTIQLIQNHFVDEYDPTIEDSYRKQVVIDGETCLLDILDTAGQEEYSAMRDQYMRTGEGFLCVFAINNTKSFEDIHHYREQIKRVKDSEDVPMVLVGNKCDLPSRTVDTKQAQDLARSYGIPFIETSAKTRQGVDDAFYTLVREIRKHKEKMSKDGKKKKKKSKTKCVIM
T1 sequence (P01116 1-188 isoform P01116-2 G12D): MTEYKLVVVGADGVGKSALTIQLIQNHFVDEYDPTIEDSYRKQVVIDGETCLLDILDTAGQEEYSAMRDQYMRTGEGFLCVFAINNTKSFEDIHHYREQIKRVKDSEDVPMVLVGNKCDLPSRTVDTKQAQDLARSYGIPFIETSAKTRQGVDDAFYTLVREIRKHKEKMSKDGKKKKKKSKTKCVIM

| IC50 (K-Ras G12D) [µM] | IC50 (SW620 cells) [µM] | IC50 (K-Ras G12S) [µM] | IC50 (K-Ras G12V) [µM] | IC50 (wildtype K-Ras) [µM] | IC50 (A549 cells) [µM] | SMILES | IC50 (GP2D cells) [µM] |
| --- | --- | --- | --- | --- | --- | --- | --- |
| < 5 | < 5 | < 5 | < 5 | < 5 | < 5 | N#Cc1c(N)sc2c(F)ccc(-c3c(Cl)c4c5c(nc(OC[C@@]67CCCN6C[C@H](F)C7)nc5c3F)N3CCNCCC3CO4)c12 (stereo partly drawn) [compound 142, 2-amino-4-(6-chloro-4-fluoro-2-(((2R,7aS)-2-fluorotetrahydro-1H-pyrrolizin-7a(5H)-yl)methoxy)-8a,9,10,11,12,13-hexahydro-8H-[1,4]diazepino[7′,1′:3,4][1,4]oxazepino [5,6,7-de]quinazolin-5-yl)-7-fluorobenzo[b]thiophene-3-carbonitrile] | < 5 |
| < 5 | < 5 | < 5 | < 5 | < 5 | < 5 | N#Cc1c(N)sc2c(F)ccc(-c3c(Cl)c4c5c(nc(OCC67CCCN6C[C@H](F)C7)nc5c3F)N3CCCCCC3CO4)c12 (stereo partly drawn) [compound 193, 2-amino-4-(3-chloro-1-fluoro-13-(((2R,7aS)-2-fluorotetrahydro-1H-pyrrolizin-7a(5H)-yl)methoxy)-5a,6,7,8,9,10-hexahydro-5H-azepino[2′,1′:3,4][1,4]oxazepino[5,6,7-de]quinazolin-2-yl)-7-fluorobenzo[b]thiophene-3-carbonitrile] | < 5 |
| < 5 | < 5 | < 5 | < 5 | < 5 | < 5 | N#Cc1c(N)sc2c(F)ccc(-c3c(Cl)c4c5c(nc(OC[C@@]67CCCN6C[C@H](F)C7)nc5c3F)N3CCCNCC3CO4)c12 (stereo partly drawn) [compound 151, 2-amino-4-(12-chloro-10-fluoro-8-(((2R,7aS)-2-fluorotetrahydro-1H-pyrrolizin-7a(5H)-yl)methoxy)-2,3,4,5,14,14a-hexahydro-1H-[1,4]diazepino[2′,1′:3,4][1,4]oxazepino [5,6,7-de]quinazolin-11-yl)-7-fluorobenzo[b]thiophene-3-carbonitrile] | < 5 |
| < 5 | < 5 | < 5 | < 5 | < 5 | < 5 | N#Cc1c(N)sc2c(F)ccc(-c3c(Cl)c4c5c(nc(OC[C@@]67CCCN6C[C@H](F)C7)nc5c3F)N3CCC(C#N)CC3CO4)c12 (stereo partly drawn) [compound 205, 5-(2-amino-3-cyano-7-fluorobenzo[b]thiophen-4-yl)-6-chloro-4-fluoro-2-(((2R,7aS)-2-fluorotetrahydro-1H-pyrrolizin-7a(5H)-yl)methoxy)-8,8a,9,10,11,12-hexahydropyrido[2′,1′:3,4][1,4]oxazepino [5,6,7-de]quinazoline-10-carbonitrile] | < 5 |
| < 5 | < 5 | < 5 | < 5 | < 5 | < 5 | N#Cc1c(N)sc2c(F)ccc(-c3c(Cl)c4c5c(nc(OCC67CCCN6C[C@H](F)C7)nc5c3F)N3CCC(O)CC3CO4)c12 (stereo partly drawn) [compound 132, 2-amino-4-(3-chloro-1-fluoro-12-(((2R,7aS)-2-fluorotetrahydro-1H-pyrrolizin-7a(5H)-yl)methoxy)-7-hydroxy-5,5a,6,7,8,9-hexahydropyrido[2′,1′:3,4][1,4]oxazepino[5,6,7-de]quinazolin-2-yl)-7-fluorobenzo[b]thiophene-3-carbonitrile] | < 5 |
| < 5 | < 5 | < 5 | < 5 | < 5 | < 5 | N#Cc1c(N)sc2c(F)ccc(-c3c(Cl)c4c5c(nc(OC[C@@]67CCCN6C[C@H](F)C7)nc5c3F)N3CCC[C@@H]3CO4)c12 [compound 144, 2-amino-4-((12aR)-10-chloro-8-fluoro-6-(((2R,7aS)-2-fluorotetrahydro-1H-pyrrolizin-7a(5H)-yl)methoxy)-2,3,12,12a-tetrahydro-1H-pyrrolo[2′,1′:3,4][1,4]oxazepino[5,6,7-de]quinazolin-9-yl)-7-fluorobenzo[b]thiophene-3-carbonitrile] | < 5 |

More lines, now with the values behind:

| SMILES | IC50 (K-Ras G12D) [µM] | IC50 (SW620 cells) [µM] | IC50 (K-Ras G12S) [µM] | IC50 (K-Ras G12V) [µM] | IC50 (wildtype K-Ras) [µM] | IC50 (A549 cells) [µM] | IC50 (GP2D cells) [µM] |
| --- | --- | --- | --- | --- | --- | --- | --- |
| COCC1CCC2COc3c(Cl)c(-c4ccc(F)c5sc(N)c(C#N)c45)c(F)c4nc(OC[C@@]56CCCN5C[C@H](F)C6)nc(c34)N12 (stereo partly drawn) [compound 138, 2-amino-4-(6-chloro-4-fluoro-2-(((2R,7aS)-2-fluorotetrahydro-1H-pyrrolizin-7a(5H)-yl)methoxy)-11-(methoxymethyl)-8a,9,10,11-tetrahydro-8H-pyrrolo[2′,1′:3,4][1,4]oxazepino[5,6,7-de]quinazolin-5-yl)-7-fluorobenzo[b]thiophene-3-carbonitrile] | < 5 | < 5 | < 5 | < 5 | < 5 | < 5 | < 5 |
| N#Cc1c(N)sc2c(F)ccc(-c3c(Cl)c4c5c(nc(OC[C@@]67CCCN6C[C@H](F)C7)nc5c3F)N3C(CO)CCC3CO4)c12 (stereo partly drawn) [compound 185, 2-amino-4-(6-chloro-4-fluoro-2-(((2R,7aS)-2-fluorotetrahydro-1H-pyrrolizin-7a(5H)-yl)methoxy)-11-(hydroxymethyl)-8a,9,10,11-tetrahydro-8H-pyrrolo[2′,1′:3,4][1,4]oxazepino[5,6,7-de]quinazolin-5-yl)-7-fluorobenzo[b]thiophene-3-carbonitrile] | < 5 | < 5 | < 5 | < 5 | < 5 | < 5 | < 5 |
| N#Cc1c(N)sc2c(F)ccc(-c3c(Cl)c4c5c(nc(OC[C@@]67CCCN6C[C@H](F)C7)nc5c3F)N3CCN(CC(F)F)CCC3CO4)c12 (stereo partly drawn) [compound 170, 2-amino-4-(6-chloro-11-(2,2-difluoroethyl)-4-fluoro-2-(((2R,7aS)-2-fluorotetrahydro-1H-pyrrolizin-7a(5H)-yl)methoxy)-8a,9,10,11,12,13-hexahydro-8H-[1,4]diazepino[7′,1′:3,4][1,4]oxazepino [5,6,7-de]quinazolin-5-yl)-7-fluorobenzo[b]thiophene-3-carbonitrile] | < 5 | < 5 | < 5 | < 5 | < 5 | < 5 | < 5 |
| CN1c2nc(OC[C@@]34CCCN3C[C@H](F)C4)nc3c(F)c(-c4ccc(F)c5sc(N)c(C#N)c45)c(Cl)c(c23)OCC2COCC21 (stereo partly drawn) [compound 141, 2-amino-4-(6-chloro-4-fluoro-2-(((2R,7aS)-2-fluorotetrahydro-1H-pyrrolizin-7a(5H)-yl)methoxy)-12-methyl-8a,9,11a,12-tetrahydro-8H,11H-furo[3′,4′:6,7][1,5]oxazocino[4,3,2-de]quinazolin-5-yl)-7-fluorobenzo[b]thiophene-3-carbonitrile] | < 5 | < 5 | < 5 | < 5 | < 5 | < 5 | < 5 |
| CN1c2nc(OC[C@@]34CCCN3C[C@H](F)C4)nc3c(F)c(-c4ccc(F)c5sc(N)c(C#N)c45)c(Cl)c(c23)OC2CN(C=O)CC21 (stereo partly drawn) [compound 126, 2-amino-4-(6-chloro-4-fluoro-2-(((2R,7aS)-2-fluorotetrahydro-1H-pyrrolizin-7a(5H)-yl)methoxy)-9-formyl-11-methyl-7a,8,9,10,10a,11-hexahydropyrrolo[3′,4′:2,3][1,4]oxazepino[5,6,7-de]quinazolin-5-yl)-7-fluorobenzo[b]thiophene-3-carbonitrile] | < 5 | < 5 | < 5 | < 5 | < 5 | < 5 | < 5 |
| N#Cc1c(N)sc2c(F)ccc(-c3c(Cl)c4c5c(nc(OC[C@@]67CCCN6C[C@H](F)C7)nc5c3F)N3CC(COC(F)F)CCC3CO4)c12 (stereo partly drawn) [compound 154, 2-amino-4-(6-chloro-11-((difluoromethoxy)methyl)-4-fluoro-2-(((2R,7aS)-2-fluorotetrahydro-1H-pyrrolizin-7a(5H)-yl)methoxy)-8,8a,9,10,11,12-hexahydropyrido[2′,1′:3,4][1,4]oxazepino [5,6,7-de]quinazolin-5-yl)-7-fluorobenzo[b]thiophene-3-carbonitrile] | < 5 | < 5 | < 5 | < 5 | < 5 | < 5 | < 5 |
